According to PubChem BioAssay (NCI):
Where “and” joins values, the source holds several entries; their conditions need not be identical. Identical values can stand only once.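 Cultured in 96-well plates, cells were exposed to test compound for 48 hours across five concentrations. GI50 is the concentration that inhibits growth by half. TGI marks complete inhibition of growth.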

Columns and labels:
Experiment in all cases: DTP human tumour cell line panel, 48 h
[1] = test system: CCRF-CEM leukemia
[2] = test system: SK-MEL-5 melanoma
[3] = test system: DLD-1 colon
[4] = test system: TK-10 renal
[5] = test system: OVCAR-3 ovarian
[6] = test system: LOX IMVI melanoma
[7] = test system: SW-620 colon
[8] = test system: EKVX NSCLC
[9] = test system: MALME-3M melanoma
[10] = test system: SNB-78 CNS

Structure (SMILES) | GI50 [1] | TGI [1] | GI50 [2] | TGI [2] | GI50 [3] | TGI [3] | GI50 [4] | TGI [4] | GI50 [5] | TGI [5] | GI50 [6] | TGI [6] | GI50 [7] | TGI [7] | GI50 [8] | TGI [8] | GI50 [9] | TGI [9] | GI50 [10] | TGI [10]
COC(=O)C([O][Ge]([CH3])([CH3])[CH3])c1ccccc1 (stereo unspecified) | > 100 µM | > 100 µM | > 100 µM | > 100 µM | > 100 µM | > 100 µM | > 100 µM | > 100 µM | > 100 µM | > 100 µM | > 100 µM | > 100 µM | > 100 µM | > 100 µM | > 100 µM | > 100 µM | > 100 µM | > 100 µM | – | –
COc1cc2cc(Oc3ccc(NC(=O)Nc4cc(C(F)(F)F)cc(C(F)(F)F)c4)cc3)c(C)nc2cc1OCCN1CCCCC1 | 2.11 µM | 4.71 µM | 1.69 µM | 3.08 µM | – | – | 2.06 µM | 3.71 µM | 1.64 µM | 3.03 µM | 1.71 µM | 3.17 µM | 1.79 µM | 3.27 µM | 1.81 µM | 3.44 µM | 1.59 µM | 3.02 µM | – | –
Cc1cccc(Cc2cnc(NC(=O)/C=C/c3ccco3)s2)c1 | 0.0433 µM | > 100 µM | 0.0354 µM | 3.36 µM | – | – | > 100 µM | > 100 µM | 0.0312 µM | 0.0914 µM | 0.0683 µM | > 100 µM | 0.0385 µM | > 100 µM | 0.0581 µM | > 100 µM | 0.0484 µM | > 100 µM | – | –
O=C(Nc1ccc(I)cc1F)c1cc(F)ccc1O | 1.85 µM | 12.4 µM | 0.229 µM | 0.556 µM | – | – | 1.59 µM | 24.2 µM | 0.395 µM | > 56.4 µM | 0.418 µM | 3.91 µM | 0.777 µM | > 34.7 µM | 1.4 µM | 9.01 µM | 0.315 µM | 1.53 µM | – | –
CC(=O)O[C@H]1Cc2c([nH]c3ccccc23)[C@@H](c2ccc(Cl)cc2)N1C(=O)CCNC(C)(C)C | 5.12 µM | 14.8 µM | 1.28 µM | 4.61 µM | – | – | 5.75 µM | 10.5 µM | 3.98 µM | 8.59 µM | 2.43 µM | 6.72 µM | 4.12 µM | 8.8 µM | 3.74 µM | 7.9 µM | 4.26 µM | 8.96 µM | – | –
O=C1c2ccccc2-c2c1c1ccccc1c(=O)n2CCCNCCO | 0.165 µM | 1.11 µM | 0.198 µM | 0.877 µM | – | – | 1.33 µM | 7.44 µM | 1.07 µM | 6.13 µM | 0.206 µM | 2.79 µM | 0.145 µM | 5.26 µM | 2.38 µM | 8.35 µM | 0.511 µM | 1.93 µM | – | –
CCCN(CCC)c1c([N+](=O)[O-])cc(C(N)=O)cc1[N+](=O)[O-] | – | > 100 µM | – | 53.8 µM | – | > 100 µM | – | > 100 µM | – | > 100 µM | – | – | – | – | – | > 100 µM | – | > 100 µM | – | –
CCN(CC)CCn1nc2c3c(cccc3c1=O)-c1ccccc1-2 | 2.08 µM | 45.9 µM | 1.51 µM | 4.08 µM | – | – | 2.09 µM | 34.4 µM | 3.78 µM | 45.2 µM | 1.31 µM | 4.74 µM | 1.89 µM | > 50 µM | 2.33 µM | 38.7 µM | 1.67 µM | 7.37 µM | – | –
CCC[CH2][Sn]1([CH2]CCC)[O]N=Cc2ccccc2[O]1 | – | – | 1.46 µM | 2.83 µM | 1.35 µM | 2.72 µM | 0.555 µM | 1.72 µM | 0.402 µM | 1.57 µM | 0.377 µM | 1.35 µM | 0.241 µM | 1.11 µM | 1.11 µM | 2.39 µM | 0.439 µM | 0.978 µM | 0.287 µM | 0.811 µM
COc1cc2cc(C(=O)N3C[C@H](CCl)c4c3cc(O)c3ccccc43)[nH]c2c(OC)c1OC | < 0.01 µM | 0.048 µM | – | 0.0439 µM | – | – | 0.0571 µM | > 100 µM | 0.0474 µM | 14.4 µM | 0.0201 µM | 1.83 µM and 12.3 µM | < 0.01 µM | – | 0.139 µM | 0.953 µM and 0.641 µM | 0.0259 µM | 0.442 µM and 0.0827 µM | – | –
CCOC(=O)Nc1ccc2nc(Sc3ccc(Cl)cc3)sc2c1 | 4 µM | > 100 µM | 1.18 µM | 5.07 µM | – | – | 9.1 µM | 58.4 µM | 1.89 µM | > 32.6 µM | 4.45 µM | 25.3 µM | 0.488 µM | > 100 µM | 8.28 µM | > 82.6 µM | 5.7 µM | 37.1 µM | – | –
Cc1cncc2cccc(S(=O)(=O)N3CCCNC[C@@H]3C)c12 | 20.3 µM | > 100 µM | > 64.1 µM | > 100 µM | – | – | 9.18 µM | 84.4 µM | 58.9 µM | > 100 µM | 7.94 µM | 87 µM | 8.06 µM | > 100 µM | 47.4 µM | > 100 µM | 99.5 µM | > 100 µM | – | –
C/C(=C\COc1ccc2ccc(=O)oc2c1)CCC(=O)C(C)(C)O | – | 46.7 µM | – | 30.2 µM | – | – | – | > 100 µM | – | 46.4 µM | – | 32.8 µM | – | 38.9 µM | – | > 100 µM | – | > 100 µM | – | –
S=C1NC2=C(CCOc3c2ccc2ccccc32)C(c2ccc(Cl)cc2)N1 (stereo unspecified) | 30.6 µM | > 100 µM | 20 µM | 44.9 µM | – | – | 35.4 µM | > 100 µM | 20.9 µM | 70.6 µM | 40.2 µM | > 100 µM | 43.7 µM | > 100 µM | 20.2 µM | 86 µM | 23.8 µM | 73.8 µM | – | –
CC1CCCc2c(CC3CC(=O)NC(=O)C3)nc(N)nc21 (stereo unspecified) | – | > 100 µM | – | > 100 µM | – | – | – | > 100 µM | – | > 100 µM | – | > 100 µM | – | > 100 µM | – | > 100 µM | – | > 100 µM | – | –
O=C1NC(=Nc2ccccc2Cl)SC1C(=O)Nc1ccc([N+](=O)[O-])cc1[N+](=O)[O-] (stereo unspecified) | – | > 100 µM | – | > 100 µM | – | > 100 µM | – | > 100 µM | – | > 100 µM | – | – | – | > 100 µM | – | > 100 µM | – | > 100 µM | – | > 100 µM
